In one assay the target is T1, FGFR1 (Homo sapiens, UniProt P11362).
T1 construct: purchased Millipore
The assay is described as follows: ELISA kinase assay, FGFR1. The assay is classed as biochemical. As to the method:
(§1) The effects of compounds on the activities of indicated (FGFR1 and c-Met) kinases were determined using enzyme-linked immunosorbent assays (ELISAs) with purified recombinant proteins. Briefly, 20 μg/mL poly (Glu, Tyr)4:1 (Sigma, St. Louis, MO, USA) was pre-coated in 96-well plates as a substrate. A 50-μL aliquot of 10 μmol/L ATP solution diluted in kinase reaction buffer (50 mmol/L HEPES (pH 7.4), 50 mmol/L MgCl2, 0.5 mmol/L MnCl2, 0.2 mmol/L Na3VO4, and 1 mmol/L DTT) was added to each well; 1 μL of various concentrations of compounds diluted in 1% DMSO (v/v) (Sigma) were then added to each reaction well. DMSO (1%, v/v) was used as the negative control. The kinase reaction was initiated by the addition of purified tyrosine kinase proteins FGFR1 (Millipore, Darmstadt, Germany) or c-Met (Millipore) diluted in 49 μL of kinase reaction buffer. After incubation for 60 min at 37 °C, the plate was washed three times with phosphate-buffered saline (PBS) containing 0.1% Tween 20 (T-PBS). Anti-phosphotyrosine (PY99) antibody (Sanra Cruz, Dallas, USA) (100 μL; 1:500, diluted in 5 mg/mL bovine serum albumin (BSA) T-PBS) was then added. After a 30-min incubation at 37 °C, the plate was washed three times, and 100 μL horseradish peroxidase-conjugated goat anti-mouse IgG (Calbiochem, Shanghai, China) (1:2000, diluted in 5 mg/mL BSA T-PBS) was added. The plate was then incubated at 37°C for 30 min and washed 3 times. A 100-μL aliquot of a solution containing 0.03% H2O2 and 2 mg/mL o-phenylenediamine in 0.1 mol/L citrate buffer (pH 5.5) was added. The reaction was terminated by the addition of 50 μL of 2 mol/L H2SO4 as the color changed, and the plate was analyzed using a multi-well spectrophotometer (SpectraMAX 190, Molecular Devices, Palo Alto, CA, USA) at 490 nm. […] (1) where IR, A490 and A490control are the inhibition rate, the absorbance value of the tested compound at 490 nm and the absorbance value of the negative control compound at 490 nm, respectively. The IC50 values were calculated from the inhibition curves in two separate experiments.

The next assay deals with T2, c-Met (Homo sapiens, UniProt P08581).
T2 construct: purchased Millipore
T2 sequence (P08581 25-1390): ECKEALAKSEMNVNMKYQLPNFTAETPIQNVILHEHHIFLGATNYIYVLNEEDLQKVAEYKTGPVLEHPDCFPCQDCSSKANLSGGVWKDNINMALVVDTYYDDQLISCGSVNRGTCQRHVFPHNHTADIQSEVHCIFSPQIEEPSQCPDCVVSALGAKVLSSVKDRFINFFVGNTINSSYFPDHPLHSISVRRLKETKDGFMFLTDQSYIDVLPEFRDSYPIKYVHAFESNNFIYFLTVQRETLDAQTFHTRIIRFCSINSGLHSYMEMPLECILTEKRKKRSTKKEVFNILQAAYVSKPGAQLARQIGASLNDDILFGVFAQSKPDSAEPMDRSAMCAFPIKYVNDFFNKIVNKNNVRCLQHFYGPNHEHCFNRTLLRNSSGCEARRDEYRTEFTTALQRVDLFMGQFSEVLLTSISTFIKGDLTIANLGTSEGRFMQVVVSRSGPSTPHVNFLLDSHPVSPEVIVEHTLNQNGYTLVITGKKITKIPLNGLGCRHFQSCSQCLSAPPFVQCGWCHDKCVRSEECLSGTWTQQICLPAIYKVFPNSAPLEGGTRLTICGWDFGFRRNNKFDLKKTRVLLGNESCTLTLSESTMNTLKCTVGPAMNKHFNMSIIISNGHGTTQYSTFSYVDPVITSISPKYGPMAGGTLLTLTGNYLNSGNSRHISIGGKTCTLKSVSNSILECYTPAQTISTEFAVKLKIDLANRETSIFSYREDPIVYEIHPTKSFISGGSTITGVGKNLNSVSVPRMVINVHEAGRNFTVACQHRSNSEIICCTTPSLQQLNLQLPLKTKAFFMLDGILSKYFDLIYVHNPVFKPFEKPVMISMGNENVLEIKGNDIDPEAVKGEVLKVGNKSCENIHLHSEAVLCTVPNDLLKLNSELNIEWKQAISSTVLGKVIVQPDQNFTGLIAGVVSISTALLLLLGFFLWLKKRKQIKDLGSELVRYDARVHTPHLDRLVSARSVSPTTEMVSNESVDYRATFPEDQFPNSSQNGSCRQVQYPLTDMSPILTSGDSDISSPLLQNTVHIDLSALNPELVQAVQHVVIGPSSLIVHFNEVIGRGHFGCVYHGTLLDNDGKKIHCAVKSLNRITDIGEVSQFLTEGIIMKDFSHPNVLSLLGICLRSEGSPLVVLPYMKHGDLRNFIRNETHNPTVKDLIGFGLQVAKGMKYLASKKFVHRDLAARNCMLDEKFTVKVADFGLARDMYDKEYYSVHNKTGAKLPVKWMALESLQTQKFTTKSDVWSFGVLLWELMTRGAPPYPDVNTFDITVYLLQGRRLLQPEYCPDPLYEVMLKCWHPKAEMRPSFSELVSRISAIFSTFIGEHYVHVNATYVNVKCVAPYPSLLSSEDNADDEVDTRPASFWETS
The assay is described as follows: ELISA kinase assay, c-Met. The assay is classed as biochemical. As to the method:
as §1

T1 sequence (P11362 22-822): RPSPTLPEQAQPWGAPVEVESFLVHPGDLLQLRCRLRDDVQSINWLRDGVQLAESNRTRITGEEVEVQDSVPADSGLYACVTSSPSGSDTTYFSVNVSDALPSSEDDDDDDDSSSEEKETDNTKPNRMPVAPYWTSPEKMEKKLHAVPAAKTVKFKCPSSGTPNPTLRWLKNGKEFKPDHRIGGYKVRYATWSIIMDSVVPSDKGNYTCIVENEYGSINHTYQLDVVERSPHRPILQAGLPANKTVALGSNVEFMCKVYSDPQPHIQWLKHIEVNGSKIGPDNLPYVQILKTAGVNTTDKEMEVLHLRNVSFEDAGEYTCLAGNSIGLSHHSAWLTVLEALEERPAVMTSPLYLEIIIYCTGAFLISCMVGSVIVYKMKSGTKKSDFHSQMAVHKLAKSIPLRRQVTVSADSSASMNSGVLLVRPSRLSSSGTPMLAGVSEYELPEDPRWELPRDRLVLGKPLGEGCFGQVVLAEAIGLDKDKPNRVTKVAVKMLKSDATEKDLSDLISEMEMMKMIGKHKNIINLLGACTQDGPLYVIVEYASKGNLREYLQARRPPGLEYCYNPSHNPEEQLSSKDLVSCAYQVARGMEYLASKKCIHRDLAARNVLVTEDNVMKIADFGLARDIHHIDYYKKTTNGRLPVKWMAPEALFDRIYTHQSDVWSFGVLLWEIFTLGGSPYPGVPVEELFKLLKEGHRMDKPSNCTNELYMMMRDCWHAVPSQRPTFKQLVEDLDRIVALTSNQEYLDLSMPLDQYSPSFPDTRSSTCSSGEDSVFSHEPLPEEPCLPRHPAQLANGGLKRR

Regarding `Cn1cc(-c2cnc3ccn(S(=O)(=O)c4cccc([N+](=O)[O-])c4)c3n2)cn1` [Compound 17, 3-(1-Methyl-1H-pyrazol-4-yl)-5-((3-nitrophenyl)sulfonyl)-5H-pyrrolo[2,3-b]pyrazine], the inhibition at 0.1 µM at FGFR1 (0.1 μM compound) was 61.1%; at c-Met (0.1 μM compound), -1.5%. For the same molecule, the inhibition at 1 µM was determined as 76.4% at FGFR1 (1 μM compound) and 30.6% at c-Met (1 μM compound). Also, on FGFR1 (10 μM compound, mean from two separate experiments), the inhibition at 10 µM came to 92.1%. Also, the IC50 at FGFR1 (mean ± SD from two separate experiments) is 85.9 ± 21.2 nM. Besides, the inhibition at 0.01 µM on c-Met (0.01 μM compound) is -5.4%.
